The results in this text go back to patent US9492398B2, “Nanocapsulation of essential oils for preventing or curing infectious diseases alone or with an antibiotic” (Eydo Pharma, priority 2011, dated 2016).

In brackets after ≈: the same amount, converted by molar mass. Where two headings read alike, the source gives them in different places.

The test system of test [1] is S. aureus ATCC25923. In words: Minimal inhibitory concentration on Mueller Hinton Agar (Example 13). It counts as cell-based, Staphylococcus aureus. The settings on record: Staphlococcus aureus. As to the method: (§1) Mueller Hinton Agar was used in a standardized disk diffusion procedure for determining the susceptibility of rapidly growing aerobic microorganisms to antimicrobial agents.
(§2) The test to evaluate the increase in resistance was carried out with a concentration of the product of two times the Minimal Inhibitory Concentration (MIC).

Test [2] relates to SARM S. aureus ATCC25923. The description is as above. It counts as cell-based, Staphylococcus aureus. As to conditions: Staphylococcus aureus. As to the method:
as §1, §2

Test [3] deals with SARM S. aureus ATCC25923. Briefly: In vitro emergence of resistance over passages. It counts as cell-based, Staphylococcus aureus. The method, then: as §1, §2
The test system of test [4] is P. aeroginosa ATCC27853. Briefly: Minimal inhibitory concentration on Muller-Hinton agar. It counts as cell-based. As to conditions: P. aeroginosa ATCC27853; read-out: Minimal Inhibitory Concentration. As to the method:
(§3) The essential oils were also tested individually for their minimal inhibitory concentration.
(§4) The solution was first prepared at 40% in DMSO before being placed on the Muller-Hinton agar in the following manner in Table VIII:
(§5) Twenty-two different microorganisms were tested and their minimal inhibitory concentration was tested.

For test [5], the system named is A. baumanni SAN008. The description is as above. It counts as cell-based. The settings on record: A. baumanni SAN008. The method, then: as §3, §4, §5
Test [6] deals with A. baumanni CIP107292. Described as above. It counts as cell-based. The settings on record: A. baumanni CIP107292; read-out: Minimal Inhibitory Concentration. As to the method:
as §3, §4, §5

The test system of test [7] is E. aerogenes 0705A0867. The test is described as above. It counts as cell-based. The method, then: as §3, §4, §5
Test [8] has as its system S. aureus 0706C0025. Described as above. It counts as cell-based. The settings on record: Staphylococcus aureus, 0706C0025, S. aureus 0706C0025; read-out: Minimal Inhibitory Concentration. As to the method:
as §3, §4, §5

Test [9] deals with E. coli 0705A0434. Described as above. It counts as cell-based. As to the method:
as §3, §4, §5

The test system of test [10] is A. baumanni CIP7034. The test is described as above. The settings on record: A. baumanni CIP7034. It counts as cell-based. The method, then:
as §3, §4, §5

The subject of test [11] is S. aureus 0701A0095. The description is as above. It counts as cell-based. As to the method:
as §3, §4, §5

The subject of test [12] is A. baumanni RCH. The test is described as above. As to conditions: A. baumanni RCH. It counts as cell-based. As to the method:
as §3, §4, §5

Test [13] relates to Salmonell enteritidis 4. The description is as above. It counts as cell-based. As to conditions: Salmonell enteritidis 4. As to the method: as §3, §4, §5
For test [14], the system named is A. baumanni CIP5377. Described as above. It counts as cell-based. The settings on record: A. baumanni CIP5377. As to the method:
as §3, §4, §5

The subject of test [15] is S. aureus 0703H0036. The test is described as above. It counts as cell-based. The method, then: as §3, §4, §5
Test [16] concerns A. baumanni 12. Described as above. It counts as cell-based. As to conditions: A. baumanni 12. As to the method: as §3, §4, §5
The test system of test [17] is E. coli ATCC25922. Described as above. It counts as cell-based. The method, then:
as §3, §4, §5

Test [18] relates to S. aureus ATC25923. The description is as above. It counts as cell-based. As to the method: as §3, §4, §5
Test [19] deals with P. aeroginosa 0704C0134. The description is as above. It counts as cell-based. As to conditions: P. aeroginosa 0704C0134. The method, then:
as §3, §4, §5

The subject of test [20] is P. aeroginosa 0703C0259. The test is described as above. It counts as cell-based. The method, then:
as §3, §4, §5

Test [21] relates to E. cloacae 0705A1743. Described as above. It counts as cell-based. The method, then: as §3, §4, §5
Test [22] deals with S. aureus 0702E0196. Described as above. It counts as cell-based. As to the method: as §3, §4, §5
Test [23] has as its system A. baumanni AYE. The test is described as above. It counts as cell-based. As to conditions: A. baumanni AYE. The method, then:
as §3, §4, §5

For test [24], the system named is K. oxyloca 0705C0187. Described as above. As to conditions: K. oxyloca 0705C0187. It counts as cell-based. The method, then:
as §3, §4, §5

Setting [25] is: read-out: Minimal Inhibitory Concentration.

Regarding `CO[C@H]1/C=C/O[C@@]2(C)Oc3c(C)c(O)c4c(O)c(c(/C=N/N5CCN(C)CC5)c(O)c4c3C2=O)NC(=O)/C(C)=C\C=C\[C@H](C)[C@H](O)[C@@H](C)[C@@H](O)[C@@H](C)[C@H](OC(C)=O)[C@@H]1C` [Rifampicin], in test [1], the “2 times the minimal inhibitory concentration” value was determined as 0.16 µg/mL. In addition, in [2] (ATCC25923, read-out: Minimal inhibitory concentration), the MIC was 0.008 µg/mL (≈ 9.72e-06 mM). Besides, the MIC in test [2] (ATCC25923, read-out: Minimal inhibitory concentration/4) was 0.002 µg/mL (≈ 2.43e-06 mM). Besides, the “appearance of resistance, passage” value in test [3] (Staphylococcus aureus) was found to be 6. In addition, in [3] (after appearance of resistance), the “concentration at which inhibitory activity reappeared” value is 0.38 ml/I and the “times the initial minimal inhibitory concentration” value is given as 47.5.
Consider `C=CCc1ccc(O)c(OC)c1` [eugenol], for which the MIC came to 7500 µg/mL (≈ 45.7 mM) in [4]; 750 µg/mL (≈ 4.57 mM) in test [5] (setting [25]); 1000 µg/mL (≈ 6.09 mM) in test [6]; 1000 µg/mL (≈ 6.09 mM) in test [7] (Klebsiella aerogenes, 0705A0867, E. aerogenes 0705A0867, read-out: Minimal Inhibitory Concentration); 1000 µg/mL (≈ 6.09 mM) in [8]; 1000 µg/mL (≈ 6.09 mM) in test [9] (Escherichia coli, 0705A0434, E. coli 0705A0434, read-out: Minimal Inhibitory Concentration). The MIC in test [10] (setting [25]) was 1000 µg/mL (≈ 6.09 mM); in test [11] (Staphylococcus aureus, 0701A0095, S. aureus 0701A0095, read-out: Minimal Inhibitory Concentration), 750 µg/mL (≈ 4.57 mM); in [12] (setting [25]) it was 750 µg/mL (≈ 4.57 mM); in test [13] (setting [25]), 1000 µg/mL (≈ 6.09 mM); in [14] (setting [25]), 500 µg/mL (≈ 3.04 mM); in [15] (Staphylococcus aureus, 0703H0036, S. aureus 0703H0036, read-out: Minimal Inhibitory Concentration), 1000 µg/mL (≈ 6.09 mM). The MIC in test [16] (setting [25]) turned out to be 1000 µg/mL (≈ 6.09 mM); in [17] (Escherichia coli, ATCC25922, E. coli ATCC25922, read-out: Minimal Inhibitory Concentration) it was 750 µg/mL (≈ 4.57 mM); in test [18] (Staphylococcus aureus, ATC25923, S. aureus ATC25923, read-out: Minimal Inhibitory Concentration) it was 750 µg/mL (≈ 4.57 mM); in test [19] (setting [25]), 1500 µg/mL (≈ 9.13 mM); in test [20] it was 2500 µg/mL (≈ 15.2 mM); in test [21] (Enterobacter cloacae, 0705A1743, E. cloacae 0705A1743, read-out: Minimal Inhibitory Concentration), 1000 µg/mL (≈ 6.09 mM). For the same compound, the MIC in test [22] (Staphylococcus aureus, 0702E0196, S. aureus 0702E0196, read-out: Minimal Inhibitory Concentration) turned out to be 1000 µg/mL (≈ 6.09 mM); in [23] (setting [25]), 750 µg/mL (≈ 4.57 mM); in test [24] (setting [25]), 1000 µg/mL (≈ 6.09 mM). The “Minimal Inhibitory Concentration” value is 1.5 mg/mL in [5]; 1.5 mg/mL in test [7] (E. aerogenes 0705A0867); 1.5 mg/mL in test [9] (E. coli 0705A0434); 1.5 mg/mL in [10]; 1.5 mg/mL in test [11] (S. aureus 0701A0095); 1 mg/mL in [12]. The “Minimal Inhibitory Concentration” value in test [13] was 1.5 mg/mL; in [14], 1 mg/mL; in [15] (S. aureus 0703H0036), 1.5 mg/mL; in test [16], 1.5 mg/mL; in test [17] (E. coli ATCC25922), 1.5 mg/mL; in test [18] (S. aureus ATC25923) it was 1.5 mg/mL. The “Minimal Inhibitory Concentration” value in test [19] was determined as 2 mg/mL; in test [20], 5 mg/mL; in test [21] (E. cloacae 0705A1743) it was 1.5 mg/mL; in test [22] (S. aureus 0702E0196) it was 1.5 mg/mL; in test [23] it was 1 mg/mL; in test [24], 1.5 mg/mL.
